Biological target: T1, Piezo1 (Mus musculus, UniProt E2JF22)
T1 construct: native full-length channel in primary cultured cholangiocytes (DIV5) from intrahepatic bile duct units; monomer ~290 kD band reported for GFP-tagged protein
Assay: Fura-2 ratiometric Ca2+ imaging
Assay type: cell-based
Settings: agonist; native DIV5 mouse cholangiocytes, 2.5 mM external Ca2+; Yoda1 without effect in Piezo1-knockout HEK293T cells; read-out: apparent EC50
From the text: Fura-2 ratiometric Ca2+ imaging on Piezo1 | Concentration-response profile for Yoda1 in mouse DIV5 cholangiocytes, yielding apparent EC50

T1 sequence (E2JF22 whole entry): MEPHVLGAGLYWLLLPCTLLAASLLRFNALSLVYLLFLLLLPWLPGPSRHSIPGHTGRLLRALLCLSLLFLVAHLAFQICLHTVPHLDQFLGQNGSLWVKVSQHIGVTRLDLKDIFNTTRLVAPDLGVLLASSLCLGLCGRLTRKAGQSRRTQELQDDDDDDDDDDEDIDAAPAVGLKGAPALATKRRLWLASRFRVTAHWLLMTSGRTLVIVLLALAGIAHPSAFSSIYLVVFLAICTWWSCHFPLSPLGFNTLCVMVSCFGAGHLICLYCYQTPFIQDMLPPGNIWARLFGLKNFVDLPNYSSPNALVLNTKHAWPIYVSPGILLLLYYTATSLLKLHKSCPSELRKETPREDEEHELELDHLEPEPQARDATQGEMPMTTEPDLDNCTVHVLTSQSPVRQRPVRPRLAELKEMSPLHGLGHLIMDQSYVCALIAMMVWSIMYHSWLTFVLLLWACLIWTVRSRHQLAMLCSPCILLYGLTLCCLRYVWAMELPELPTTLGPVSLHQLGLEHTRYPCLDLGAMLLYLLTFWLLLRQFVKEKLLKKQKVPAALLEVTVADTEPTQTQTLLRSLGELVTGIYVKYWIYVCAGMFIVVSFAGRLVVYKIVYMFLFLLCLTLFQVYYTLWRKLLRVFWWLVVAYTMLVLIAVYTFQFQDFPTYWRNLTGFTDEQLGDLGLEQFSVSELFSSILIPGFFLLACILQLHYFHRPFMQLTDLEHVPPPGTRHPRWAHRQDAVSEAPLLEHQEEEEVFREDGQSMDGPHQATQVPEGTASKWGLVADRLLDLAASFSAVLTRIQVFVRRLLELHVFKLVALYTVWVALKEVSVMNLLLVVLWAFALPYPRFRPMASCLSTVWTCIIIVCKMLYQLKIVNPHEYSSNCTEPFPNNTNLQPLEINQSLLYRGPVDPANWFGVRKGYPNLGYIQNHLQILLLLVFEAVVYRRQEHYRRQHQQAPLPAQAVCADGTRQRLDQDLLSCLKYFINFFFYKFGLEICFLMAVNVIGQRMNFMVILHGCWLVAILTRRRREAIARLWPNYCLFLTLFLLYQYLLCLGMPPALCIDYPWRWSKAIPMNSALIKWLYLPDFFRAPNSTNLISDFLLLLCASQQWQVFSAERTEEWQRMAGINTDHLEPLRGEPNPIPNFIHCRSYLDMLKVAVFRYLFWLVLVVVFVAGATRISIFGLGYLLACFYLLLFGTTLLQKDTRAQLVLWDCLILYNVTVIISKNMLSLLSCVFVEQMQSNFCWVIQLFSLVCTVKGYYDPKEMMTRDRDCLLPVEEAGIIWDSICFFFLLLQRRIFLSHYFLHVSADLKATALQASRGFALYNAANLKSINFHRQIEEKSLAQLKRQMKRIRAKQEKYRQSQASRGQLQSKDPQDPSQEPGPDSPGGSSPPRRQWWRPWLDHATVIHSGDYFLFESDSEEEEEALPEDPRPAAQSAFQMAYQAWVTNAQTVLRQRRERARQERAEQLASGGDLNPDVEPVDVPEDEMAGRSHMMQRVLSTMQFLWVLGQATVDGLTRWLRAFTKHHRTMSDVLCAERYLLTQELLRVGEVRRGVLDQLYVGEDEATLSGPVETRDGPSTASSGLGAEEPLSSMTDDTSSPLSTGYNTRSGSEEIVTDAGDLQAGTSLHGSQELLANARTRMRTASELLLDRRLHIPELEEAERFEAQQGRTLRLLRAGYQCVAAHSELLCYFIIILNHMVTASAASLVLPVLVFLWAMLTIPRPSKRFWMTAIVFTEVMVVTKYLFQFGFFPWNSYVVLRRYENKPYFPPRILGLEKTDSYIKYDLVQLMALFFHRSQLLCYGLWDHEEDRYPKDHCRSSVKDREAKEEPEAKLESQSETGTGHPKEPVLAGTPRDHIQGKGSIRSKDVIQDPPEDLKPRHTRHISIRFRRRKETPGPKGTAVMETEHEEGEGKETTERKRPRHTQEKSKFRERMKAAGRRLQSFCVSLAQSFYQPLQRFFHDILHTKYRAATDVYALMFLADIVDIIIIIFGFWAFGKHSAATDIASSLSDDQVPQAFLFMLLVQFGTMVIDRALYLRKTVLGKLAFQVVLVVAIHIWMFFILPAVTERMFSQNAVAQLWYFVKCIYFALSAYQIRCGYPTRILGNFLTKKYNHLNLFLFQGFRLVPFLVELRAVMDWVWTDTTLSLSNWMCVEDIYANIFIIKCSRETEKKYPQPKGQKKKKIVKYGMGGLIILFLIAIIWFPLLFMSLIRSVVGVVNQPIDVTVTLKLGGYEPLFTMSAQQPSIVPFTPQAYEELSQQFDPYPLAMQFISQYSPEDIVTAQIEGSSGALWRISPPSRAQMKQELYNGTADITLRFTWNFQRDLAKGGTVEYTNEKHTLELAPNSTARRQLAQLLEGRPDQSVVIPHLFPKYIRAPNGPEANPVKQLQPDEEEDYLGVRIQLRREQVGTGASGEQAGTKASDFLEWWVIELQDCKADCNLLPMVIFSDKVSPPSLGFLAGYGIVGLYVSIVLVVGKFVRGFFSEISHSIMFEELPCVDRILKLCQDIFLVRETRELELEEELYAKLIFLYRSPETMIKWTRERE

EC50: 29.4 ± 1.25 µM
SMILES: Clc1cccc(Cl)c1CSc1nnc(-c2cnccn2)s1 [Yoda1]

From paper PMC8548913, “Piezo1–Pannexin1 complex couples force detection to ATP secretion in cholangiocytes” (The Journal of General Physiology, 2021)
